Laboratory results taken from patent US20250368649A1, “TETRAHYDROPYRIDOPYRIMIDINE PAN-KRAS INHIBITORS” (Mirati Therapeutics, Inc., priority 2022, published 2025).

Assays:
[1] = system: MKN1 cells; assay: Inhibition of KRas-mediated phosphorylation of ERK (Cisbio HTRF pERK), MKN1 cells; type: cell-based; conditions: Homo sapiens
In short: (§1)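 Day 1: 6,000 cells/well plated, RPMI + 10% FBS.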

[2] = system: PSN1 cells; assay: Inhibition of KRas-mediated phosphorylation of ERK (Cisbio HTRF pERK), PSN1 cells; type: cell-based; conditions: Homo sapiens, PSN1, 3 h
In short: as §1

[3] = system: ASPC1 cells; assay: Inhibition of KRas-mediated phosphorylation of ERK (Cisbio HTRF pERK), ASPC1 cells; type: cell-based; conditions: Homo sapiens, ASPC1, 3 h, AsPC-1 cells, 3 hr compound incubation
[4] = system: H727 cells; assay: Inhibition of KRas-mediated phosphorylation of ERK (Cisbio HTRF pERK), H727 cells; type: cell-based; conditions: Homo sapiens, NCI-H727, 3 h, 3 hr compound incubation
[5] = system: A549 cells; assay: Inhibition of KRas-mediated phosphorylation of ERK (Cisbio HTRF pERK), A549 cells; type: cell-based; conditions: Homo sapiens; for IC50: A549, 3 h, 3 hr compound incubation
[6] = system: H460 cells; assay: Inhibition of KRas-mediated phosphorylation of ERK (Cisbio HTRF pERK), H460 cells; type: cell-based; conditions: Homo sapiens; for IC50: NCI-H460, 3 h, 3 hr compound incubation
[7] = system: HCT116 cells; assay: Inhibition of KRas-mediated phosphorylation of ERK (Cisbio HTRF pERK), HCT116 cells; type: cell-based; conditions: Homo sapiens; for IC50: HCT-116, 3 h, 3 hr compound incubation
[8] = system: H358 cells; assay: Inhibition of KRas-mediated phosphorylation of ERK (Cisbio HTRF pERK), H358 cells; type: cell-based; conditions: Homo sapiens; for IC50: NCI-H358, 3 h, 3 hr compound incubation
[9] = target: KRas G12D (Homo sapiens, UniProt P01116, G12D); assay: biochemical; conditions: Binding to KRas (IC50 nM) G12D, TR-FRET displacement, KRas G12D
Chain of KRas G12D (P01116 1-169 isoform P01116-2 G12D): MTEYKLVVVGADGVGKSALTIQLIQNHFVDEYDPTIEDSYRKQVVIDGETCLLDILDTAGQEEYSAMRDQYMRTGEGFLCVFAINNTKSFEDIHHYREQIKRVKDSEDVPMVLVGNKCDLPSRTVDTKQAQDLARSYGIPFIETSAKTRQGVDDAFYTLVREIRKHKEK

[10] = target: KRas G12R (Homo sapiens, UniProt P01116, G12R); assay: biochemical; conditions: Binding to KRas (IC50 nM) G12R, TR-FRET displacement, KRas G12R
Chain of KRas G12R (P01116 1-169 isoform P01116-2 G12R): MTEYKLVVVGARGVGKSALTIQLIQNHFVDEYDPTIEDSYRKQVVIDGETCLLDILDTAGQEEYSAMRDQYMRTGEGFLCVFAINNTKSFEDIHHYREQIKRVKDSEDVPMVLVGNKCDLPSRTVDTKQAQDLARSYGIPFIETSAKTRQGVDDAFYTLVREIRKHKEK

[11] = target: KRas G12V (Homo sapiens, UniProt P01116, G12V); assay: biochemical; conditions: Binding to KRas (IC50 nM) G12V, TR-FRET displacement, KRas G12V
Chain of KRas G12V (P01116 1-169 isoform P01116-2 G12V): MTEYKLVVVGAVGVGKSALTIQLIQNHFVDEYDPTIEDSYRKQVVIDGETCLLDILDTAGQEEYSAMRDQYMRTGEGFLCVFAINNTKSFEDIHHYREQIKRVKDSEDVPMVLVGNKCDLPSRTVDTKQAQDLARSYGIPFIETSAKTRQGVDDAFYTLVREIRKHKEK

[12] = MKN-1, 3 hr compound incubation

IC50 [1, 12]	IC50 ([2]; 3 hr compound incubation)	IC50 [3]	IC50 [4]	IC50 [5]	IC50 [6]	IC50 [7]	IC50 [8]	IC50 [9]	IC50 [10]	IC50 [11]	IC50 ([1]; MKN-1, 3 hour compound incubation, Cisbio pERK HTRF)	IC50 ([2]; 3 hour compound incubation, Cisbio pERK HTRF)	IC50 ([3]; Cisbio pERK HTRF)	IC50 ([4]; Cisbio pERK HTRF)	Structure (SMILES)	inhibition at 0.1 µM ([5]; single point at 100 nM, 3 hrs compound incubation)	inhibition at 0.1 µM ([6]; NCI-H460, single point at 100 nM, 3 hrs compound incubation)	inhibition at 0.1 µM ([7]; HCT-116, single point at 100 nM, 3 hrs compound incubation)	inhibition at 0.1 µM ([8]; NCI-H358, single point at 100 nM, 3 hrs compound incubation)
1.6 nM	> 10000 nM	2 nM	13 nM	7 nM	32 nM	78 nM	3 nM	< 2 nM	< 2 nM	< 2 nM	–	–	–	–	CCc1c(F)ccc2cc(O)cc(N3CCc4c(nc(OC[C@@]56CCCN5C[C@H](F)C6)nc4N4CCCn5nc(C(=O)N(C)C)c(O)c5C4)C3)c12 [Example 628, 5-(7-(8-ethyl-7-fluoro-3-hydroxynaphthalen-1-yl)-2-(((2R,7aS)-2-fluorotetrahydro-1H-pyrrolizin-7a(5H)-yl)methoxy)-5,6,7,8-tetrahydropyrido[3,4-d]pyrimidin-4-yl)-3-hydroxy-N,N-dimethyl-5,6,7,8-tetrahydro-4H-pyrazolo[1,5-a][1,4]diazepine-2-carboxamide]	–	–	–	–
3.7 nM	2670 nM	6 nM	7 nM	24 nM	30 nM	111 nM	2 nM	< 2 nM	< 2 nM	< 2 nM	–	–	–	–	CCc1c(F)ccc2cc(O)cc(N3CCc4c(nc(OC[C@@]56CCCN5C[C@H](F)C6)nc4N4CCCn5nc(C(=O)N6C[C@@H]7CO[C@@H](C7)C6)cc5C4)C3)c12 [Example 620, ((1R,5S)-6-oxa-3-azabicyclo[3.2.1]octan-3-yl)(5-(7-(8-ethyl-7-fluoro-3-hydroxynaphthalen-1-yl)-2-(((2R,7aS)-2-fluorotetrahydro-1H-pyrrolizin-7a(5H)-yl)methoxy)-5,6,7,8-tetrahydropyrido[3,4-d]pyrimidin-4-yl)-5,6,7,8-tetrahydro-4H-pyrazolo[1,5-a][1,4]diazepin-2-yl)methanone]	–	–	–	–
303 nM	> 10000 nM	179 nM	216 nM	225 nM	481 nM	1010 nM	109 nM	< 2 nM	< 2 nM	2 nM	–	–	–	–	CCc1c(F)ccc2cc(O)cc(N3CCc4c(nc(OC[C@@]56CCCN5C[C@H](F)C6)nc4N4CCCn5ncc(C)c5C4)C3)c12 [Example 641, 5-ethyl-6-fluoro-4-(2-(((2R,7aS)-2-fluorotetrahydro-1H-pyrrolizin-7a(5H)-yl)methoxy)-4-(3-methyl-7,8-dihydro-4H-pyrazolo[1,5-a][1,4]diazepin-5(6H)-yl)-5,8-dihydropyrido[3,4-d]pyrimidin-7(6H)-yl)naphthalen-2-ol]	–	–	–	–
–	–	–	–	–	–	–	–	5 nM	4 nM	4 nM	63 nM	> 10000 nM	185 nM	327 nM	CCc1c(F)ccc2cc(O)cc(N3CCc4c(nc(OC[C@@]56CCCN5C[C@H](F)C6)nc4N4CCCn5nc(CC(=O)N(C)C)cc5C4)C3)c12 [Example 317, 2-(5-(7-(8-ethyl-7-fluoro-3-hydroxynaphthalen-1-yl)-2-(((2R,7aS)-2-fluorohexahydro-1H-pyrrolizin-7a-yl)methoxy)-5,6,7,8-tetrahydropyrido[3,4-d]pyrimidin-4-yl)-5,6,7,8-tetrahydro-4H-pyrazolo[1,5-a][1,4]diazepin-2-yl)-N,N-dimethylacetamide]	12%	1%	13%	19%
